This test deals with IFNα-induced pSTAT5 (pY694) in CD3 positive cells of human whole blood. Put plainly: IFNα-Induced STAT Phosphorylation in Human Whole Blood. The test is classed as cell-based. The note with it: Homo sapiens, 1 h compound incubation, 1000 U/mL recombinant human IFNα A/D for 15 min, pSTAT5 in CD3 positive population, read-out: Human WB IFNα-Induced Stat Phosph. (IC50). The protocol: IFNα-Induced STAT Phosphorylation in Human Whole Blood
After an hour long incubation with compound, human whole blood (drawn with either EDTA or ACD-A as anti-coagulant) was stimulated with 1000 U/mL recombinant human IFNα A/D (R&D Systems 11200-2) for 15 min. The stimulation was stopped by adding Fix/Lyse buffer (BD 558049). Cells were stained with a CD3 FITC antibody (BD 555916), washed, and permeabilized on ice using Perm III buffer (BD 558050). Cells were then stained with an Alexa-Fluor 647 pSTAT5 (pY694) antibody (BD 612599) for 30 min prior to analysis on the FACS Canto II. The amount of pSTAT5 expression was quantitated by median fluorescence intensity after gating on the CD3 positive population.
IFNα-Induced STAT Phosphorylation in Human Whole Blood Inhibition Data ND—no data available

Consider 50 compounds from patent US12240840B2, “Amide-substituted heterocyclic compounds for the treatment of conditions related to the modulation of IL-12, IL-23 and/or IFN-alpha” (BRISTOL-MYERS SQUIBB COMPANY, priority 2018, dated 2025).

As to `CCS(=O)(=O)N1CCN(C(=O)c2cnc(-c3cccc(Nc4cc(NC(=O)C5CC5)nnc4C(N)=O)c3OC)s2)CC1` [Example 402], the IC50 (as a rule, the midpoint of a concentration-inhibition curve) is 40 nM.

Consider `[2H]C([2H])([2H])NC(=O)c1nnc(NC(=O)C2CC2)cc1Nc1cccc(-c2nc(C)c(C(=O)NCCOC)s2)c1OC` [Example 366], for which the IC50 is 510 nM. Under `[2H]C([2H])([2H])NC(=O)c1nnc(NC(=O)C2CC2)cc1Nc1cc(F)cc(-c2ncc(C(=O)N(C)C)s2)c1OC` [Example 277] stands 240 nM. Under `[2H]C([2H])([2H])NC(=O)c1cnc(NC(=O)C2CC2)cc1Nc1cccc(-c2cnn(CCNC(=O)COC)n2)c1OC` [Example 441] stands 290 nM. Turning to `[2H]C([2H])([2H])NC(=O)c1cnc(Nc2cnn(C)n2)cc1Nc1cc(F)cc(-c2cc(C(=O)N(C)C)n(C)n2)c1OC` [Example 553], the IC50 was determined as 120 nM. The result for `[2H]C([2H])([2H])NC(=O)c1nnc(Nc2cnn(C)n2)cc1Nc1cccc(-c2ncc(C(C)O)s2)c1OC` (centres unmarked) [Example 385] reads 180 nM; that for `[2H]C([2H])([2H])NC(=O)c1nnc(NC(=O)C2CC2)cc1Nc1cccc(-c2nc([C@H](C)NC(=O)OC)no2)c1OC` [Example 182], 2010 nM.

For `[2H]C([2H])([2H])NC(=O)c1nnc(NC(=O)C2CC2)cc1Nc1cccc(-c2nc(C3(NC(=O)OC(C)(C)C)CC3)no2)c1OC` [Example 150], the IC50 was above 10000 nM.

As for `[2H]C([2H])([2H])NC(=O)c1nnc(NC(=O)C2CC2)cc1Nc1cccc(-c2ncc(C(=O)NC3CCC(N(CC)CC)CC3)s2)c1OC` (centres unmarked) [Example 319], the IC50 amounted to 30 nM. Take `[2H]C([2H])([2H])NC(=O)c1nnc(NC(=O)C2CC2)cc1Nc1cccc(-c2ncc(C(=O)NCCCN(C)C)s2)c1OC` [Example 317]: the IC50 was found to be 30 nM. As for `[2H]C([2H])([2H])NC(=O)c1nnc(NC(=O)C2CC2)cc1Nc1cccc(-c2nc(CC(=O)NCCO)no2)c1OC` [Example 177], the IC50 stood at 1030 nM. On to `[2H]C([2H])([2H])NC(=O)c1nnc(NC(=O)C2CC2)cc1Nc1cccc(-c2noc(C(=O)N3CCS(=O)(=O)CC3)n2)c1OC` [Example 20], for which the IC50 is 1500 nM. The result for `[2H]C([2H])([2H])NC(=O)c1nnc(NC(=O)C2CC2)cc1Nc1cccc(-c2ncc(C(=O)N3CCC(CCN4CCCC4)CC3)s2)c1OC` [Example 318] reads 80 nM. In the case of `COc1c(Nc2cc(NC(=O)C3CC3)ncc2C(N)=O)cccc1-c1nc(CN2CCN(S(C)(=O)=O)CC2)no1` [Example 577], the IC50 stood at 19 nM. Under `COc1c(Nc2cc(NC(=O)C3CC3)nnc2C(N)=O)cccc1-c1noc(CN(C)S(=O)(=O)CC(F)(F)F)n1` [Example 55] stands 40 nM; under `[2H]C([2H])([2H])NC(=O)c1nnc(NC(=O)C2CC2)cc1Nc1cccc(-c2noc(CN3CCOCC3)n2)c1OC` [Example 7], 24 nM. The result for `[2H]C([2H])([2H])NC(=O)c1nnc(NC(=O)C2CC2)cc1Nc1cccc(-c2ncc(CNC(=O)CC)s2)c1OC` [Example 262] reads 2690 nM; that for `[2H]C([2H])([2H])NC(=O)c1nnc(NC(=O)C2CC2)cc1Nc1cccc(-c2nc(CN3CCN(C(=O)NCC)CC3)no2)c1OC` [Example 136], 1130 nM; that for `[2H]C([2H])([2H])NC(=O)c1nnc(NC(=O)C2CC2)cc1Nc1cccc(-c2cnc(C(=O)N(C)C)s2)c1OC` [Example 239, 5-(3-((6-(cyclopropanecarboxamido)-3-((methyl-d3)carbamoyl)pyridazin-4-yl)amino)-2-methoxyphenyl)-N,N-dimethylthiazole-2-carboxamide], 50 nM. Under `[2H]C([2H])([2H])NC(=O)c1nnc(NC(=O)C2CC2)cc1Nc1cccc(-c2ncc(C(=O)NCCCN3CCCC3=O)s2)c1OC` [Example 293] stands 30 nM; under `[2H]C([2H])([2H])NC(=O)c1nnc(NC(=O)C2CC2)cc1Nc1cccc(-c2ncc(C(=O)NCC)s2)c1OC` [Example 272], 160 nM; under `[2H]C([2H])([2H])NC(=O)c1nnc(NC(=O)C2CC2)cc1Nc1cc(F)cc(-c2cc(C(=O)N3CCC(c4ccccc4)CC3)n(C)n2)c1OC` [Example 511], 320 nM.

With `[2H]C([2H])([2H])NC(=O)c1nnc(NC(=O)C2CC2)cc1Nc1cccc(-c2cc(C(=O)N(C)CCOC)n(C)n2)c1OC` [Example 481], the IC50 was determined as 390 nM. As for `[2H]C([2H])([2H])NC(=O)c1nnc(NC(=O)C2CC2)cc1Nc1cc(F)cc(-c2cc(C(=O)N3CCC[C@H]3CO)n(C)n2)c1OC` [Example 507], the 50% inhibitory concentration (IC50) was 110 nM. As to `[2H]C([2H])([2H])NC(=O)c1nnc(NC(=O)C2CC2)cc1Nc1cccc(-c2nc(CN3CCOCC3)no2)c1OC` [Example 124], the IC50 came out at 210 nM. As for `[2H]C([2H])([2H])NC(=O)c1cnc(NC(=O)C2CC2)cc1Nc1cccc(-c2nc(C(C)N3CCN(S(C)(=O)=O)CC3)no2)c1OC` (centres unmarked) [Example 223], the IC50 turned out to be 690 nM. Turning to `[2H]C([2H])([2H])NC(=O)c1nnc(NC(=O)C2CC2)cc1Nc1cccc(-c2nc(CN3CC4CN(C(=O)OC)CC4C3)no2)c1OC` (centres unmarked) [Example 234], the IC50 was determined as 300 nM.

For the compound `[2H]C([2H])([2H])NC(=O)c1nnc(Nc2ccc(OC)nn2)cc1Nc1cccc(-c2ncc(CNC(C)=O)s2)c1OC` [Example 387], the concentration for half-maximal inhibition (IC50) amounted to 270 nM. `[2H]C([2H])([2H])NC(=O)c1nnc(NC(=O)C2CC2)cc1Nc1cccc(-c2cc(C(=O)N3CCN(C(C)=O)CC3)n(C)n2)c1OC` [Example 493]: the IC50 came out at 40 nM. Consider `[2H]C([2H])([2H])NC(=O)c1nnc(NC(=O)C2CC2)cc1Nc1cccc(-c2nc([C@H](NC(=O)CC)[C@H](C)O)no2)c1OC` [Example 208], for which the IC50 worked out at 1270 nM. Take `[2H]C([2H])([2H])NC(=O)c1nnc(NC(=O)C2CC2)cc1Nc1cccc(-c2nc(CN3CCN(S(C)(=O)=O)CC3=O)no2)c1OC` [Example 141]: the IC50 turned out to be 240 nM. Under `COc1c(Nc2cc(NC(=O)C3CC3)nnc2C(N)=O)cccc1-c1ncc(C(=O)N2CCC(CCO)CC2)o1` [Example 416] stands 460 nM; under `[2H]C([2H])([2H])NC(=O)c1nnc(NC(=O)C2CC2)cc1Nc1cccc(-c2nc(CNS(C)(=O)=O)no2)c1OC` [Example 146], 210 nM; under `COc1c(Nc2cc(NC3CC3)nnc2C(N)=O)cccc1-c1noc(CNS(C)(=O)=O)n1` [Example 118], 3800 nM.

Consider `[2H]C([2H])([2H])NC(=O)c1nnc(NC(=O)C2CC2)cc1Nc1cc(F)cc(-c2cc(C(=O)N(C)CCCN(C)C)n(C)n2)c1OC` [Example 510], for which the IC50 is 460 nM. Under `[2H]C([2H])([2H])NC(=O)c1nnc(NC(=O)C2CC2)cc1Nc1cccc(-c2ncc(C(=O)N3CCN(S(=O)(=O)CC)CC3)s2)c1OC` [Example 242] stands 21 nM; under `[2H]C([2H])([2H])NC(=O)c1cnc(Nc2cc(C)ccn2)cc1Nc1cccc(-c2noc(COCC)n2)c1OC` [Example 100], 60 nM; under `[2H]C([2H])([2H])NC(=O)c1nnc(NC(=O)C2CC2)cc1Nc1cccc(-c2ccn(CCNC[C@H](O)CC)n2)c1OC` [Example 474], 3560 nM. The result for `[2H]C([2H])([2H])NC(=O)c1nnc(NC(=O)C2CC2)cc1Nc1cccc(-c2ncc(CC(=O)N(C)C)o2)c1OC` [Example 410, 6-(cyclopropanecarboxamido)-4-((3-(5-(2-(dimethylamino)-2-oxoethyl)oxazol-2-yl)-2-methoxyphenyl)amino)-N-(methyl-d3)pyridazine-3-carboxamide] reads 260 nM. The result for `[2H]C([2H])([2H])NC(=O)c1nnc(Nc2cc(C)n(C)n2)cc1Nc1cc(F)cc(-c2cc(C(C)(C)O)n(C)n2)c1OC` [Example 546] reads 110 nM; that for `[2H]C([2H])([2H])NC(=O)c1nnc(NC(=O)C2CC2)cc1Nc1cccc(-c2cnn(CCNC(=O)CO)n2)c1OC` [Example 447], 160 nM; that for `[2H]C([2H])([2H])NC(=O)c1nnc(NC(=O)C2CC2)cc1Nc1cccc(-c2ccn(CCN(C[C@H](O)CC)C[C@@H](O)CC)n2)c1OC` [Example 475], 2320 nM. As to `[2H]C([2H])([2H])NC(=O)c1nnc(NC(=O)C2CC2)cc1Nc1cc(F)cc(-c2cc(C(=O)N(C)CCN(C)C)n(C)n2)c1OC` [Example 514], the IC50 worked out at 870 nM. The result for `[2H]C([2H])([2H])NC(=O)c1nnc(NC(=O)C2CC2)cc1Nc1cccc(-c2cc(C(=O)N3CCCCC3)n(C)n2)c1OC` [Example 479] reads 110 nM; that for `[2H]C([2H])([2H])NC(=O)c1nnc(NC(=O)C2CC2)cc1Nc1cccc(-c2nc([C@@H](C)NC(=O)CC)no2)c1OC` [Example 196], 1180 nM.

On to `[2H]C([2H])([2H])NC(=O)c1nnc(NC(=O)C2CC2)cc1Nc1cccc(-c2nc(C3(NC(=O)COC)CC3)no2)c1OC` [Example 149], for which the IC50 worked out at 1950 nM. Take `COc1c(Nc2cc(NC(=O)C3CC3)nnc2C(N)=O)cccc1-c1noc(CN2CCN(S(C)(=O)=O)CC2)n1` [Example 40]: the IC50 amounted to 12 nM.

With `[2H]C([2H])([2H])NC(=O)c1nnc(NC(=O)C2CC2)cc1Nc1cccc(-c2ncc(C(=O)NCCC(=O)OC)s2)c1OC` [Example 290], the IC50 is 100 nM.

On to `[2H]C([2H])([2H])NC(=O)c1cnc(NC(=O)C2CC2)cc1Nc1cccc(-c2nc(COCc3ccccc3)no2)c1OC` [Example 216], for which the IC50 stood at 320 nM. Under `[2H]C([2H])([2H])NC(=O)c1nnc(NC(=O)C2CC2)cc1Nc1cccc(-c2noc(CNC(=O)OC)n2)c1OC` [Example 30] stands 1380 nM.
